Results taken from patent US20180141962A1, “AZACARBAZOLE BTK INHIBITORS” (MERCK SHARP & DOHME CORP., priority 2015, published 2018).
Like-named read-outs stand apart in the source and are kept apart here.

Target: T1, BTK enzyme (recombinant full-length BTK, hBTK) (Homo sapiens, UniProt Q06187)
T1 construct: recombinant protein from baculovirus-transfected Sf9 cells: full-length BTK, 6HIS-tag cleaved; 6HIS (cleaved yes); made in house; host or cells: baculovirus-transfected Sf9 cells
Test: Btk enzyme activity assay, LANCE TR-FRET
Type: biochemical
Settings: 50 pM hBTK, 2 μM biotin-A5-peptide, 25 μM ATP, 60 minute compound & enzyme incubation, 120 minutes reaction
Description: Btk Enzyme Activity Assay Methods
BTK enzymatic activity was determined with the LANCE (Lanthanide Chelate Excite) TR-FRET (lime-resolved fluorescence resonance energy transfer) assay. […] Phosphorylation reactions were allowed to proceed for 120 minutes. […] After 60 minutes incubation with detection reagents, reaction plates were read on a PerkinElmer EnVision plate reader using standard TR-FRET protocol. Briefly, excitation of donor molecules (Eu-chelate:anti-phospho-antibody) with a laser light source at 337 nm produces energy that can be transferred to Dylight-650 acceptor molecules if this donor:acceptor pair is within close proximity. Fluorescence intensity at both 665 nm (acceptor) and 615 nm (donor) are measured and a TR-FRET ratio calculated for each well (acceptor intensity/donor intensity). IC50 values were determined by 4 parameter robust fit of TR-FRET ratio values vs. (Log10) compound concentrations.

[1] = read-out: BTK binding potency IC50

T1 sequence (Q06187 whole entry): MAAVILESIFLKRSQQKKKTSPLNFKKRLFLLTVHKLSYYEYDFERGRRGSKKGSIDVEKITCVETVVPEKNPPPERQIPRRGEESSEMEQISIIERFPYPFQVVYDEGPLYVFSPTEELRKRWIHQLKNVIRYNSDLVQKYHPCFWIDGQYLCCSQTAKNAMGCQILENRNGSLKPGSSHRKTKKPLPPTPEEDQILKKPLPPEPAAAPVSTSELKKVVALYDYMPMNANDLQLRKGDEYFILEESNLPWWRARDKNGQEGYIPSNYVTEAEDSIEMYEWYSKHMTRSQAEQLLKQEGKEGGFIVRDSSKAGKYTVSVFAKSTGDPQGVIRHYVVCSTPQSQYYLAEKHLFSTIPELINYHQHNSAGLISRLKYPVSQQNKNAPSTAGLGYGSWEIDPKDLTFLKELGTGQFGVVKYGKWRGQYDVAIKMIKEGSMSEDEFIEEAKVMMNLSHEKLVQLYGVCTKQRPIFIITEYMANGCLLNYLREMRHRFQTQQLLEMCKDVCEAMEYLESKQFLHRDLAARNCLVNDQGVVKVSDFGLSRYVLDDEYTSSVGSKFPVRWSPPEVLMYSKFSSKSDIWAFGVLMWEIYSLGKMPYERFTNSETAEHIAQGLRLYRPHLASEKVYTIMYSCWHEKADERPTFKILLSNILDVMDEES

Q: Which IC50 [1] does the source give for `NC(=O)c1cnc(N2CCCC3(CCNC3=O)C2)c2c1[nH]c1ccc(C(=O)O)cc12` (stereo not shown) [Example 84, 4-carbamoyl-1-(1-oxo-2,7-diazaspiro[4.5]dec-7-yl)-5H-pyrido[4,3-b]indole-8-carboxylic acid] here?
A: Its IC50 is 48.8 nM.

Q: Which IC50 [1] does the source give for `COC(=O)c1ccc2c(c1)[nH]c1c(C(N)=O)cnc(N3CCCC4(CCNC4=O)C3)c12` (stereo not shown) [Example 83, Methyl 4-carbamoyl-1-(1-oxo-2,7-diazaspiro[4.5]decan-7-yl)-5H-pyrido[4,3-b]indole-7-carboxylate] here?
A: The IC50 was 57.2 nM.

Q: With `CN1CC[C@@]2(CCCN(c3ncc(C(N)=O)c4[nH]c5cc(C6CCC(CC(C)(C)O)CC6)ccc5c34)C2)C1=O` (stereo partly drawn) [Example 82, 7-[4-(2-hydroxy-2-methylpropyl)cyclohexyl]-1-[(5R)-2-methyl-1-oxo-2,7-diazaspiro[4.5]dec-7-yl]-5H-pyrido[4,3-b]indole-4-carboxamide] as the compound, how does the IC50 [1] read?
A: The IC50 was 2.9 nM.

Q: For `CC(C)c1ccc(N2CCCC3(CCCN(c4ncc(C(N)=O)c5[nH]c6ccccc6c45)C3)C2=O)cc1` (stereo not shown) [Example 5, 1-{8-[4-(1-methylethyl)phenyl]-7-oxo-2,8-diazaspiro[5.5]undec-2-yl}-5H-pyrido[4,3-b]indole-4-carboxamide], which IC50 [1] is on record?
A: Its IC50 is 492 nM.

Q: For `CN1CC[C@@]2(CCCN(c3ncc(C(N)=O)c4[nH]c5cc(C6CCN(CC(C)(C)O)CC6)ccc5c34)C2)C1=O` [Example 77, 7-[1-(2-hydroxy-2-methylpropyl)piperidin-4-yl]-1-[(5R)-2-methyl-1-oxo-2,7-diazaspiro[4.5]dec-7-yl]-5H-pyrido[4,3-b]indole-4-carboxamide], which IC50 [1] is on record?
A: The IC50 was 0.55 nM.

Q: For `CC(=O)N1CCC2(CCN(c3ncc(C(N)=O)c4[nH]c5ccccc5c34)CC2)C1` [Example 14, 1-(2-acetyl-2,8-diazaspiro[4.5]dec-8-yl)-5H-pyrido[4,3-b]indole-4-carboxamide], which IC50 [1] is on record?
A: The IC50 was 26 nM.

Q: With `NC(=O)c1cnc(N2CCC3(CC2)CNC(=O)C3)c2c1[nH]c1ccccc12` [Example 10, 1-(3-oxo-2,8-diazaspiro[4.5]dec-8-yl)-5H-pyrido[4,3-b]indole-4-carboxamide] as the compound, how does the IC50 [1] read?
A: The IC50 was 19.4 nM.

Q: For `NC(=O)c1cnc(N2CCCC3(C2)OCCN(c2ccc(F)cc2)C3=O)c2c1[nH]c1ccccc12` (stereo not shown) [Example 3, 1-(4-(4-fluorophenyl)-5-oxo-1-oxa-4,8-diazaspiro[5.5]undecan-8-yl)-5H-pyrido[4,3-b]indole-4-carboxamide], which IC50 [1] is on record?
A: Its IC50 is 109 nM.

Q: How did the IC50 [1] turn out when `NC(=O)c1cnc(N2CCCC3(CCNC3=O)C2)c2c1[nH]c1cc(C(=O)O)ccc12` (stereo not shown) [Example 85, 4-carbamoyl-1-(1-oxo-2,7-diazaspiro[4.5]dec-7-yl)-5H-pyrido[4,3-b]indole-7-carboxylic acid] was run?
A: Its IC50 is 448 nM.

Q: `NC(=O)c1cnc(N2CCC[C@@]3(CCCN(c4ccc(F)cc4)C3=O)C2)c2c1[nH]c1ccccc12` [Example 1, (R)-1-(8-(4-fluorophenyl)-7-oxo-2,8-diazaspiro[5.5]undecan-2-yl)-5H-pyrido[4,3-b]indole-4-carboxamide] was tested. Which IC50 [1] did it give?
A: Its IC50 is 149 nM.

Q: How did the IC50 [1] turn out when `CN1CC[C@@]2(CCCN(c3ncc(C(N)=O)c4[nH]c5cc(-c6cccc(C(O)C(F)(F)F)c6)ccc5c34)C2)C1=O` (stereo partly drawn) [Example 79, 1-[(5R)-2-methyl-1-oxo-2,7-diazaspiro[4.5]dec-7-yl]-7-[3-(2,2,2-trifluoro-1-hydroxyethyl)phenyl]-5H-pyrido[4,3-b]indole-4-carboxamide] was run?
A: Its IC50 is 63 nM.

Q: With `CC(C)(C)c1ccc(C(=O)N2CCCC3(CCCCN3c3ncc(C(N)=O)c4[nH]c5ccccc5c34)C2)cc1` (stereo not shown) [Example 25, 1-{8-[(4-tert-butylphenyl)carbonyl]-1,8-diazaspiro[5.5]undec-1-yl}-5H-pyrido[4,3-b]indole-4-carboxamide] as the compound, how does the IC50 [1] read?
A: Its IC50 is 536 nM.

Q: How did the IC50 [1] turn out when `NC(=O)c1cnc(N2CCCC3(CCNC3=O)C2)c2c1[nH]c1cc(C3CCNCC3)ccc12` (stereo in doubt) [Example 63, 1-[(5S)-1-oxo-2,7-diazaspiro[4.5]dec-7-yl]-7-piperidin-4-yl-5H-pyrido[4,3-b]indole-4-carboxamide] was run?
A: Its IC50 is 6.3 nM.

Q: How did the IC50 [1] turn out when `COc1cc(-c2ccc3c(c2)[nH]c2c(C(N)=O)cnc(N4CCC[C@@]5(CCN(C)C5=O)C4)c23)ccn1` [Example 75, 7-(2-methoxypyridin-4-yl)-1-[(5R)-2-methyl-1-oxo-2,7-diazaspiro[4.5]dec-7-yl]-5H-pyrido[4,3-b]indole-4-carboxamide] was run?
A: Its IC50 is 9.5 nM.

Q: `CC(C)(C)OC(=O)N1CCC2(C1)CN(c1ncc(C(N)=O)c3[nH]c4ccccc4c13)C2` [Example 21, tert-butyl 2-(4-carbamoyl-5H-pyrido[4,3-b]indol-1-yl)-2,6-diazaspiro[3.4]octane-6-carboxylate] was tested. Which IC50 [1] did it give?
A: Its IC50 is 435 nM.

Q: For `CC(C)N1CCC(c2ccc3c(c2)[nH]c2c(C(N)=O)cnc(N4CCC[C@@]5(CCNC5=O)C4)c23)CC1` [Example 71, 7-[1-(1-methylethyl)piperidin-4-yl]-1-[(5R)-1-oxo-2,7-diazaspiro[4.5]dec-7-yl]-5H-pyrido[4,3-b]indole-4-carboxamide], which IC50 [1] is on record?
A: Its IC50 is 0.83 nM.

Q: How did the IC50 [1] turn out when `COc1cc(-c2ccc3c(c2)[nH]c2c(C(N)=O)cnc(N4CCC[C@@]5(CCNC5=O)C4)c23)ccn1` [Example 69, 7-(2-methoxypyridin-4-yl)-1-[(5R)-1-oxo-2,7-diazaspiro[4.5]dec-7-yl]-5H-pyrido[4,3-b]indole-4-carboxamide] was run?
A: The IC50 was 17.5 nM.

Q: `NC(=O)c1cnc(N2CCC[C@@]3(CCNC3=O)C2)c2c1[nH]c1cc(-c3ccc(=O)[nH]c3)ccc12` [Example 68, 1-[(5R)-1-oxo-2,7-diazaspiro[4.5]dec-7-yl]-7-(6-oxo-1,6-dihydropyridin-3-yl)-5H-pyrido[4,3-b]indole-4-carboxamide] was tested. Which IC50 [1] did it give?
A: Its IC50 is 3.9 nM.

Q: For `CN1CC(CO)C2(CCCN(c3ncc(C(N)=O)c4[nH]c5ccccc5c34)C2)C1=O` (single isomer, unassigned) [Example 91, cis-1-(4-(hydroxymethyl)-2-methyl-1-oxo-2,7-diazaspiro[4.5]decan-7-yl)-5H-pyrido[4,3-b]indole-4-carboxamide], which IC50 [1] is on record?
A: Its IC50 is 1000 nM.

Q: `NC(=O)c1cnc(N2CCCC3(CCNC3=O)C2)c2c1[nH]c1ccc(C(O)CO)cc12` (stereo not shown) [Example 65, 8-(1,2-dihydroxyethyl)-1-(1-oxo-2,7-diazaspiro[4.5]dec-7-yl)-5H-pyrido[4,3-b]indole-4-carboxamide] was tested. Which IC50 [1] did it give?
A: Its IC50 is 16.5 nM.

Q: Which IC50 [1] does the source give for `NC(=O)c1cnc(N2CCC[C@@]3(CCCN(c4ccc(F)cc4)C3=O)C2)c2c1[nH]c1ccc(F)cc12` [Example 6, 8-fluoro-1-[(6R)-8-(4-fluorophenyl)-7-oxo-2,8-diazaspiro[5.5]undec-2-yl]-5H-pyrido[4,3-b]indole-4-carboxamide] here?
A: Its IC50 is 853 nM.

Q: For `NC(=O)c1cnc(N2CCC3(CCNC3=O)CC2)c2c1[nH]c1ccccc12` [Example 11, 1-(1-oxo-2,8-diazaspiro[4.5]dec-8-yl)-5H-pyrido[4,3-b]indole-4-carboxamide], which IC50 [1] is on record?
A: The IC50 was 31.1 nM.

Q: Which IC50 (BTK binding potency IC50 (nM)) does the source give for `NC(=O)c1cnc(N2CCCC3(CCNC3=O)C2)c2c1[nH]c1ccccc12` (stereo not shown) [Example 34, 1-(1-oxo-2,7-diazaspiro[4.5]dec-7-yl)-5H-pyrido[4,3-b]indole-4-carboxamide] here?
A: Its IC50 is 17.2 nM.

Q: Which IC50 [1] does the source give for `COC(=O)N1CCC(c2ccc3[nH]c4c(C(N)=O)cnc(N5CCCC6(CCNC6=O)C5)c4c3c2)CC1` (stereo not shown) [Example 51, methyl 4-[4-carbamoyl-1-(1-oxo-2,7-diazaspiro[4.5]dec-7-yl)-5H-pyrido[4,3-b]indol-8-yl]piperidine-1-carboxylate] here?
A: The IC50 was 87.9 nM.

Q: Which IC50 [1] does the source give for `NC(=O)c1cnc(N2CCCC3(CCNC3=O)C2)c2c1[nH]c1ccc(C3CCN(CC(=O)O)CC3)cc12` (stereo not shown) [Example 48, {4-[4-carbamoyl-1-(1-oxo-2,7-diazaspiro[4.5]dec-7-yl)-5H-pyrido[4,3-b]indol-8-yl]piperidin-1-yl}acetic acid] here?
A: Its IC50 is 47.6 nM.

Q: How did the IC50 [1] turn out when `CS(=O)(=O)N1CCC(c2ccc3[nH]c4c(C(N)=O)cnc(N5CCCC6(CCNC6=O)C5)c4c3c2)CC1` (stereo not shown) [Example 66, 8-[1-(methylsulfonyl)piperidin-4-yl]-1-(1-oxo-2,7-diazaspiro[4.5]dec-7-yl)-5H-pyrido[4,3-b]indole-4-carboxamide] was run?
A: Its IC50 is 125 nM.

Q: How did the IC50 [1] turn out when `NC(=O)c1cnc(N2CCC[C@]3(C2)C(=O)NC[C@H]3O)c2c1[nH]c1ccccc12` (stereo in doubt) [Example 17, 1-[(4S,5R)-4-hydroxy-1-oxo-2,7-diazaspiro[4.5]dec-7-yl]-5H-pyrido[4,3-b]indole-4-carboxamide] was run?
A: The IC50 was 538 nM.

Q: Which IC50 [1] does the source give for `NC(=O)c1cnc(N2CCCC3(CCNC3=O)C2)c2c1[nH]c1cc(C3CCNCC3)ccc12` (stereo not shown) [Example 42, 1-(1-oxo-2,7-diazaspiro[4.5]decan-7-yl)-7-(piperidin-4-yl)-5H-pyrido[4,3-b]indole-4-carboxamide] here?
A: Its IC50 is 1.4 nM.

Q: With `NC(=O)c1cnc(N2CCCC3(CCNC3=O)C2)c2c1[nH]c1ccccc12` (stereo in doubt) [Example 40, 1-[(5R)-1-oxo-2,7-diazaspiro[4.5]dec-7-yl]-5H-pyrido[4,3-b]indole-4-carboxamide] as the compound, how does the IC50 (BTK binding potency IC50 (nM)) read?
A: The IC50 was 121 nM.

Q: How did the IC50 [1] turn out when `CN1C[C@@H](CO)[C@@]2(CCCN(c3ncc(C(N)=O)c4[nH]c5ccccc5c34)C2)C1=O` (racemic) [Example 92, trans-1-(4-(hydroxymethyl)-2-methyl-1-oxo-2,7-diazaspiro[4.5]decan-7-yl)-5H-pyrido[4,3-b]indole-4-carboxamide] was run?
A: The IC50 was 64 nM.

Q: `CC(C)(C)c1ccc(N2CCC3(CCCN(c4ncc(C(N)=O)c5[nH]c6ccccc6c45)C3)CC2=O)cc1` (stereo not shown) [Example 38, 1-[9-(4-tert-butylphenyl)-8-oxo-2,9-diazaspiro[5.5]undec-2-yl]-5H-pyrido[4,3-b]indole-4-carboxamide] was tested. Which IC50 [1] did it give?
A: The IC50 was 420 nM.
